Key:
Experiment in all cases: Minimal inhibitory concentration (MIC), standard agar dilution method
Assay type in all cases: cell-based
[1] = system: Proteus morganii EP-14; details: Morganella morganii, EP14; Mueller Hinton agar, 37° C., 18 hours; Examples 1, 2, 4, 5, 6, 8 and 22 as sodium salts, others as free carboxylic acids
Description: (§1) The compounds obtained in these examples were tested for their antibacterial activities in vitro. Minimal inhibitory concentration (MIC) was determined by the standard agar dilution method of the Japan Society of Chemotherapy. Compounds were dissolved in appropriate solvents (sterilized water for sodium salts and acetone-water [1:1] for free acids) and serial two-fold dilutions were made. Sodium salt of Cefazolin was chosen as the control compound. One-ml aliquots of each dilution were mixed with 9 ml of Mueller Hinton agar in petri-dishes to make agar plates containing the compound at serially diluted concentrations. After agar hardened, plates were put in an incubator at 37° C. for 1.5-2 hours with the lids slightly open to evaporate acetone off the plates. Test organisms were grown for 18 hours at 37° C. in Trypticase Soy broth and diluted in saline to approximately 10^6 colony forming units per ml. A loopful of each cell suspension was applied on the agar plate mentioned above and the plates were incubated for 18 hours at 37° C. before MIC was determined. MIC values of the compounds of Examples 1, 2, 4, 5, 6, 8 and 22 were determined as their sodium salts and those of other compounds as free carboxylic acids.

[2] = system: Pseudomonas aeruginosa EP-172; details: EP172, Mueller Hinton agar, 37° C., 18 hours, Examples 1, 2, 4, 5, 6, 8 and 22 as sodium salts, others as free carboxylic acids
Description: as §1

[3] = system: Klebsiella pneumoniae EK-6; details: EK6, Mueller Hinton agar, 37° C., 18 hours, Examples 1, 2, 4, 5, 6, 8 and 22 as sodium salts, others as free carboxylic acids
Description: as §1

[4] = system: Escherichia coli NIHJ; details: Mueller Hinton agar, 37° C., 18 hours, Examples 1, 2, 4, 5, 6, 8 and 22 as sodium salts, others as free carboxylic acids
Description: as §1

[5] = system: Serratia marcescens ES-75; details: ES75, Mueller Hinton agar, 37° C., 18 hours, Examples 1, 2, 4, 5, 6, 8 and 22 as sodium salts, others as free carboxylic acids
Description: as §1

[6] = system: Staphylococcus aureus 209-P; details: Mueller Hinton agar, 37° C., 18 hours, Examples 1, 2, 4, 5, 6, 8 and 22 as sodium salts, others as free carboxylic acids
Description: as §1

Row | SMILES | MIC [1] | MIC [2] | MIC [3] | MIC [4] | MIC [5] | MIC [6]
1 | CC(=O)Oc1ccc2c(=O)c(C(=O)N[C@@H](C(=O)N[C@@H]3C(=O)N4C(C(=O)O)=C(CSc5nnc(C)s5)CS[C@H]34)c3ccccc3)coc2c1OC(C)=O [Example 10, 7β-[D-2-(7,8-Diacetoxychromone-3-carboxamido)-2-phenyl-acetamido]-3-[(5-methyl-1,3,4-thiadiazol-2-yl)thiomethyl]-3-cephem-4-carboxylic acid] | 1.56 mg/L | 1.56 mg/L | ≤ 0.1 mg/L | 0.8 mg/L | 0.2 mg/L | 0.8 mg/L
2 | CC(=O)Oc1cc2c(=O)c(C(=O)N[C@@H](C(=O)N[C@@H]3C(=O)N4C(C(=O)O)=C(CSc5nnnn5C)CS[C@H]34)c3ccc(O)cc3)coc2c(OC(C)=O)c1OC(C)=O [Example 29, 7β-[D-2-(6,7,8-Triacetoxychromone-3-carboxamido)-2-(4-hydroxyphenyl)acetamido]-3-[(1-methyltetrazol-5-yl)thiomethyl]-3-cephem-4-carboxylic acid] | 12.5 mg/L | 0.4 mg/L | ≤ 0.1 mg/L | 1.56 mg/L | 0.4 mg/L | 1.56 mg/L
3 | CC(=O)Oc1ccc2c(=O)c(C(=O)N[C@@H](C(=O)N[C@@H]3C(=O)N4C(C(=O)O)=C(CSc5nnnn5C)CS[C@H]34)c3ccc(O)cc3)coc2c1OC(C)=O [Example 11, 7β-[D-2-(7,8-Diacetoxychromone-3-carboxamido)-2-(4-hydroxyphenyl)acetamido] -3-[(1-methyltetrazol-5-yl)thiomethyl]-3-cephem-4-carboxylic acid] | 25 mg/L | 6.25 mg/L | ≤ 0.1 mg/L | 0.8 mg/L | 1.56 mg/L | 0.8 mg/L

Results, then the compound that gave them:

Row | MIC [1] | MIC [2] | MIC [3] | MIC [4] | MIC [5] | MIC [6] | SMILES
4 | 12.5 mg/L | 6.25 mg/L | ≤ 0.1 mg/L | 1.56 mg/L | 3.13 mg/L | 0.8 mg/L | Cn1nnnc1SCC1=C(C(=O)O)N2C(=O)[C@@H](NC(=O)[C@H](NC(=O)c3coc4c(O)c(O)ccc4c3=O)c3ccc(O)cc3)[C@H]2SC1 [Example 9, 7β-[D-2-(7,8-Dihydroxychromone-3-carboxamido)-2-(4-hydroxyphenyl)acetamido]-3-[(1-methyltetrazol-5-yl)thiomethyl]-3-cephem-4-carboxylic acid]
5 | 3.13 mg/L | 0.2 mg/L | ≤ 0.1 mg/L | 0.2 mg/L | ≤ 0.1 mg/L | 0.8 mg/L | CCn1nnnc1SCC1=C(C(=O)O)N2C(=O)[C@@H](NC(=O)[C@H](NC(=O)c3coc4cc(O)c(O)cc4c3=O)c3ccc(O)cc3)[C@H]2SC1 [Example 20, 7β-[D-2-(6,7-Dihydroxychromone-3-carboxamido)-2-(4-hydroxyphenyl)acetamido]-3-[(1-ethyltetrazol-5-yl)thiomethyl]-3-cephem-4-carboxylic acid]
6 | 25 mg/L | 0.8 mg/L | ≤ 0.1 mg/L | 0.8 mg/L | 0.2 mg/L | 1.56 mg/L | O=C(O)C1=C(CSc2cccc[n+]2[O-])CS[C@@H]2[C@H](NC(=O)[C@H](NC(=O)c3coc4cc(O)c(O)cc4c3=O)c3ccc(O)cc3)C(=O)N12 [Example 25, 7β-[D-2-(6,7-Dihydroxychromone-3-carboxamido)-2-(4-hydroxyphenyl)acetamido]-3-[2-(pyridyl-1-oxido)thiomethyl]-3-cephem-4-carboxylic acid]
7 | 12.5 mg/L | 0.8 mg/L | ≤ 0.1 mg/L | 0.4 mg/L | ≤ 0.1 mg/L | 1.56 mg/L | CN(C)CCn1nnnc1SCC1=C(C(=O)O)N2C(=O)[C@@H](NC(=O)[C@H](NC(=O)c3coc4cc(O)c(O)cc4c3=O)c3ccc(O)cc3)[C@H]2SC1 [Example 21, 7β-[D-2-(6,7-Dihydroxychromone-3-carboxamido)-2-(4-hydroxyphenyl)acetamido]-3-{[1-(2-dimethylaminoethyl)tetrazol-5-yl]-thiomethyl}-3-cephem-4-carboxylic acid]

Source: patent publication US4285941A, “Cephalosporin compounds and antibacterial drugs containing the same” (Eisai Co., Ltd., priority 1979, dated 1981)
